Measurements taken from US9988390B2, “Pyrimidone derivatives and their use in the treatment, amelioration or prevention of a viral disease” (F. Hoffmann-La Roche AG, priority 2015, dated 2018).

system: influenza A virus (A/WSN/33 NanoLuc reporter virus) in A549 cells; experiment: microbe, parasite or virus in culture; assay type: cell-based; conditions: A549, 24 h, read-out: IC50 values of viral replication inhibition in a cell-based Luciferase Reporter Assay (LRA)

With `CC(=O)NCc1nc(=O)c(O)c2n1[C@@H](C(c1ccccc1)c1ccccc1)CN(C(C)C)C2=O` [Ia-55, N-[[(4S)-4-Benzhydryl-9-hydroxy-2-isopropyl-1,8-dioxo-3,4-dihydropyrazino[1,2-c]pyrimidin-6-yl]methyl]acetamide] as the compound, how does the IC50 read?
The IC50 was 473 nM.

Which IC50 does the source give for `COC(=O)Nc1nc(=O)c(O)c2n1[C@@H](C(c1ccccc1)c1ccccc1)CN(C(C)C)C2=O` [Ia-56, Methyl N-[(4S)-4-benzhydryl-9-hydroxy-2-isopropyl-1,8-dioxo-3,4-dihydropyrazino[1,2-c]pyrimidin-6-yl]carbamate] here?
Its IC50 is 200 nM.

With `COc1nc(=O)c(O)c2n1C(C(c1ccc(Cl)cc1)c1ccc(Cl)cc1)CN(C(C)C)C2=O` (stereo not shown) [Ia-63, 4-[Bis(4-chlorophenyl)methyl]-9-hydroxy-2-isopropyl-6-methoxy-3,4-dihydropyrazino[1,2-c]pyrimidine-1,8-dione] as the compound, how does the IC50 read?
The IC50 was 302 nM.

`CCN1CC(C(c2ccccc2)c2ccccc2)n2c(OC)nc(=O)c(O)c2C1=O` (stereo not shown) [Ia-64, 4-Benzhydryl-2-ethyl-9-hydroxy-6-methoxy-3,4-dihydropyrazino[1,2-c]pyrimidine-1,8-dione] was tested. Which IC50 did it give?
Its IC50 is 50 nM.

How did the IC50 turn out when `COc1nc(=O)c(O)c2n1[C@@H](C(c1ccccc1)c1ccccc1)CN(C)C2=O` [Ia-65, (4S)-4-Benzhydryl-9-hydroxy-6-methoxy-2-methyl-3,4-dihydropyrazino[1,2-c]pyrimidine-1,8-dione] was run?
Its IC50 is 26 nM.

`COc1nc(=O)c(O)c2n1[C@@H](C(c1ccccc1)c1ccccc1)CN([C@H](C)C(F)(F)F)C2=O` [Ia-66, (4S)-4-Benzhydryl-9-hydroxy-6-methoxy-2-[(1R)-2,2,2-trifluoro-1-methyl-ethyl]-3,4-dihydropyrazino[1,2-c]pyrimidine-1,8-dione] was tested. Which IC50 did it give?
The IC50 was 26 nM.

For `COc1nc(=O)c(O)c2n1C(C(c1ccccc1)c1ccccc1Br)CN(C)C2=O` (stereo not shown) [Ia-70, 4-[(2-Bromophenyl)-phenyl-methyl]-9-hydroxy-6-methoxy-2-methyl-3,4-dihydropyrazino[1,2-c]pyrimidine-1,8-dione], which IC50 is on record?
The IC50 was 27 nM.

Which IC50 does the source give for `COc1nc(=O)c(O)c2n1[C@@H](C(c1ccc(F)cc1)c1ccc(F)cc1)CN(C(C)C)C2=O` [Ia-71, (4S)-4-[Bis(4-fluorophenyl)methyl]-9-hydroxy-2-isopropyl-6-methoxy-3,4-dihydropyrazino[1,2-c]pyrimidine-1,8-dione] here?
The IC50 was 47 nM.

Which IC50 does the source give for `COc1nc(=O)c(O)c2n1[C@@H]([C@H](c1ccccc1)c1ccc(Cl)cc1)CN(C(C)C)C2=O` [Ia-72, (4S)-4-[(R)-(4-Chlorophenyl)-phenyl-methyl]-9-hydroxy-2-isopropyl-6-methoxy-3,4-dihydropyrazino[1,2-c]pyrimidine-1,8-dione] here?
Its IC50 is 40 nM.

For `COCCOc1nc(=O)c(O)c2n1[C@@H](C(c1ccccc1)c1ccccc1)CN(C)C2=O` [Ia-73, (4S)-4-Benzhydryl-9-hydroxy-6-(2-methoxyethoxy)-2-methyl-3,4-dihydropyrazino[1,2-c]pyrimidine-1,8-dione], which IC50 is on record?
The IC50 was 119 nM.

`CC(C)N1C[C@H](C(c2ccccc2)c2ccccc2)n2c(CO)nc(=O)c(O)c2C1=O` [Ia-74, (4S)-4-Benzhydryl-9-hydroxy-6-(hydroxymethyl)-2-isopropyl-3,4-dihydropyrazino[1,2-c]pyrimidine-1,8-dione] was tested. Which IC50 did it give?
Its IC50 is 125 nM.

For `CC(C)N1CC(C2c3ccccc3CCc3ccccc32)n2c(S)nc(=O)c(O)c2C1=O` (stereo not shown) [Ia-75, 4-(6,11-Dihydro-5H-dibenzo[2,1-b:1′,2′-e][7]annulen-11-yl)-9-hydroxy-2-isopropyl-6-sulfanyl-3,4-dihydropyrazino[1,2-c]pyrimidine-1,8-dione], which IC50 is on record?
The IC50 was 45 nM.

With `CC(C)N1C[C@H](C2c3ccccc3CCc3ccccc32)n2c(S(C)(=O)=O)nc(=O)c(O)c2C1=O` [Ia-76, (4S)-4-(6,11-Dihydro-5H-dibenzo[2,1-b:1′,2′-e][7]annulen-11-yl)-9-hydroxy-2-isopropyl-6-methylsulfonyl-3,4-dihydropyrazino[1,2-c]pyrimidine-1,8-dione] as the compound, how does the IC50 read?
Its IC50 is 13 nM.
